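96-well plates; 48 h exposure; 5 concentrations. Endpoints by linear interpolation between flanking doses. Not reached: highest tested concentration assigned. GI50: concentration for 50% inhibition of growth.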 Active and inactive are the calls of the source. Rule as the data show it: active = GI50 up to about 1.1 µM and inactive = higher.
Assays:
Experiment in all cases: DTP human tumour cell line panel, 48 h
IGROV-1 = test system: IGROV-1
MOLT-4 = test system: MOLT-4
SW-620 = test system: SW-620
SK-MEL-5 = test system: SK-MEL-5
M14 = test system: M14
CCRF-CEM = test system: CCRF-CEM
SN12C = test system: SN12C
SF-539 = test system: SF-539
TK-10 = test system: TK-10
SF-268 = test system: SF-268
A549 = test system: A549
NCI-H226 = test system: NCI-H226
COLO 205 = test system: COLO 205
HOP-62 = test system: HOP-62
OVCAR-3 = test system: OVCAR-3
NCI-H460 = test system: NCI-H460
HT-29 = test system: HT-29

Measured: GI50

COC(=O)/C(=N\NC(=S)NN)C(C(=O)C(=O)Nc1ccccc1C(N)=O)c1nc2ccccc2nc1O (stereo unspecified)
inactive: IGROV-1 > 100 µM | MOLT-4 > 100 µM | SW-620 > 100 µM | SK-MEL-5 > 100 µM | M14 > 100 µM | CCRF-CEM > 100 µM | SN12C > 100 µM | SF-539 > 100 µM | TK-10 > 100 µM | SF-268 > 100 µM | A549 > 100 µM | NCI-H226 > 100 µM | COLO 205 > 100 µM

C=C[C@@]12CCCCC1C/C(=C(/O)OC)C(=O)C2 (stereo partly specified)
inactive: IGROV-1 > 100 µM | MOLT-4 > 100 µM | SW-620 > 100 µM | SK-MEL-5 > 100 µM | M14 > 100 µM | CCRF-CEM > 100 µM | SN12C > 100 µM | SF-539 > 100 µM | TK-10 > 100 µM | SF-268 > 100 µM | HOP-62 > 100 µM | OVCAR-3 > 100 µM | NCI-H460 > 100 µM | A549 > 100 µM | HT-29 > 100 µM | NCI-H226 > 100 µM | COLO 205 > 100 µM

O=C(Cc1nc2ccccc2s1)C(=O)Nc1ccc(Cl)cc1Cl
inactive: IGROV-1 > 100 µM | MOLT-4 > 100 µM | SW-620 > 100 µM | M14 > 100 µM | SN12C > 100 µM | SF-539 > 100 µM | TK-10 > 100 µM | SF-268 > 100 µM | HOP-62 39.9 µM | OVCAR-3 > 100 µM | NCI-H460 > 100 µM | A549 > 100 µM | HT-29 > 100 µM | NCI-H226 77.6 µM | COLO 205 > 100 µM

O=C1CCN2C(=Nc3cccc4cccc2c34)N1
inactive: IGROV-1 > 100 µM | MOLT-4 > 100 µM | SW-620 > 100 µM | SK-MEL-5 > 100 µM | M14 > 100 µM | CCRF-CEM > 100 µM | SN12C > 100 µM | SF-539 > 100 µM | TK-10 > 100 µM | SF-268 > 100 µM | HOP-62 > 100 µM | NCI-H460 > 100 µM | A549 > 100 µM | HT-29 > 100 µM | NCI-H226 > 100 µM | COLO 205 > 100 µM

CCOc1cc2cnc3c4cc(OC)c(OC)cc4ccc3c2cc1OC
inactive: IGROV-1 > 100 µM | MOLT-4 49.8 µM | SW-620 > 100 µM | SK-MEL-5 > 100 µM | M14 > 100 µM | CCRF-CEM 23.8 µM | SN12C 30 µM | SF-539 > 100 µM | TK-10 > 100 µM | SF-268 37.3 µM | HOP-62 > 100 µM | OVCAR-3 29.9 µM | NCI-H460 > 100 µM | A549 > 100 µM | HT-29 > 100 µM | NCI-H226 > 100 µM | COLO 205 4.92 µM

COc1ccc(N2C(=O)/C(=C/c3ccc(N(CCC#N)CCC#N)cc3C)N=C2/C=C\c2ccccc2)cc1
inactive: IGROV-1 68.4 µM | MOLT-4 34.3 µM | SW-620 33.2 µM | SK-MEL-5 31.9 µM | M14 27.1 µM | CCRF-CEM 24 µM | SN12C 4.35 µM | SF-539 10.8 µM | TK-10 98.9 µM | SF-268 22.6 µM | HOP-62 24.4 µM | OVCAR-3 > 100 µM | NCI-H460 33.4 µM | A549 53 µM | HT-29 38.9 µM | NCI-H226 > 100 µM | COLO 205 26.7 µM

CP(C)C.[Ag][I]
inactive: IGROV-1 40.4 µM | MOLT-4 > 100 µM | SW-620 > 100 µM | SK-MEL-5 15.4 µM | M14 > 100 µM | CCRF-CEM 22 µM | SN12C > 100 µM | SF-539 > 100 µM | TK-10 41.5 µM | SF-268 > 100 µM | HOP-62 > 100 µM | OVCAR-3 > 100 µM | NCI-H460 > 100 µM | A549 > 100 µM | HT-29 > 100 µM | NCI-H226 > 100 µM | COLO 205 47.9 µM

Cc1nc(N)sc1C(=O)/C=C/c1ccc(/C=C/C(=O)c2sc(NC(=O)CCCCCCCCC(=O)Nc3nc(C)c(C(=O)/C=C/c4ccc(/C=C/C(=O)c5sc(N)nc5C)cc4)s3)nc2C)cc1
inactive: IGROV-1 > 100 µM | MOLT-4 > 100 µM | SW-620 > 100 µM | M14 > 100 µM | CCRF-CEM 80.9 µM | SN12C > 100 µM | SF-539 > 100 µM | TK-10 > 100 µM | SF-268 > 100 µM | HOP-62 > 100 µM | OVCAR-3 62.8 µM | NCI-H460 > 100 µM | A549 > 100 µM | HT-29 > 100 µM | COLO 205 > 100 µM

COC(=O)C1=C(C(=O)OC)C2(C)OC1C(=O)C21CC1 (stereo unspecified)
inactive: IGROV-1 23.2 µM | MOLT-4 19.5 µM | SW-620 19.5 µM | SK-MEL-5 > 100 µM | M14 15.3 µM | CCRF-CEM 16.9 µM | SN12C 22.9 µM | SF-539 20.7 µM | TK-10 > 10 µM | SF-268 54.5 µM | HOP-62 > 100 µM | OVCAR-3 22.1 µM | NCI-H460 24.9 µM | A549 > 100 µM | HT-29 18.1 µM | NCI-H226 > 100 µM | COLO 205 24.1 µM

O=C(O)c1nccnc1C(=O)O
inactive: IGROV-1 > 100 µM | MOLT-4 > 100 µM | SW-620 > 100 µM | SK-MEL-5 > 100 µM | CCRF-CEM > 100 µM | SN12C > 100 µM | SF-539 > 100 µM | TK-10 > 100 µM | SF-268 > 100 µM | NCI-H460 > 100 µM | A549 > 100 µM | HT-29 > 100 µM | NCI-H226 > 100 µM | COLO 205 > 100 µM

CC(C)=CCC/C(C)=C/CC/C(C)=C/Cc1c(O)c2ccccc2oc1=O
inactive: IGROV-1 > 100 µM | MOLT-4 > 100 µM | SW-620 > 100 µM | M14 > 100 µM | CCRF-CEM > 100 µM | SN12C > 100 µM | SF-539 > 100 µM | TK-10 > 100 µM | SF-268 > 100 µM | HOP-62 > 100 µM | OVCAR-3 75.5 µM | NCI-H460 > 100 µM | A549 65.6 µM | HT-29 > 100 µM | NCI-H226 47.1 µM | COLO 205 > 100 µM

CCCCNC1=C(C(=O)OCC)C(=O)CO1
inactive: IGROV-1 > 100 µM | MOLT-4 > 100 µM | SW-620 > 100 µM | SK-MEL-5 > 100 µM | M14 > 100 µM | CCRF-CEM > 100 µM | SN12C > 100 µM | SF-539 > 100 µM | TK-10 > 100 µM | SF-268 > 100 µM | HOP-62 > 100 µM | OVCAR-3 > 100 µM | NCI-H460 > 100 µM | A549 > 100 µM | HT-29 > 100 µM | NCI-H226 > 100 µM | COLO 205 > 100 µM
